This experiment relates to dextran sulfate salt (DSS) induced chronic ulcerative colitis in male Swiss-Webster mice. The experiment in a line: Olsalazine on dextran sulfate salt (DSS) induced chronic ulcerative colitis in mice. The conditions noted are these: for survival to necropsy day: 3% DSS days 0-14, 15% in disease controls; for mean body weight loss at study end: 3% DSS, disease control lost 3.90 g; for colon content score (mean, scale 0-3) / mean colon length / inhibition of decreased colon length: day 14; for colon content score (mean, scale 0-3): disease control mean 2.67; for mean colon length: normal 10.60, disease control 6.33; for inhibition of decreased colon length: vs disease control. It counts as in vivo. On the procedure: A study was conducted to determine the effect of Olsalazine on dextran sulfate salt (DSS) induced chronic ulcerative colitis in male Swiss-Webster mice. Groups of 20 male Swiss-Webster mice were allowed ad libitum access to Olsalazine qd beginning on day −3 and then continued daily (qd) or every two days (q2d) starting on day 0 and continuing through day 14. Dipentum®, Olsalazine Sodium is a sodium salt of salicylate, disodium 3,3′-azobis(6-hydroxybenzoate) and when exposed to colonic bacteria converts to mesalamine. In this animal model, male Swiss-Webster mice are exposed to DSS (3% days 0-14) to induce inflammation and gland loss with erosion in the colon.
Dextran sulfate, molecular weight 40-50,000 (sodium salt, Spectrum Chemicals, New Brunswick, N.J., Lot#RA1107) was stored at room temperature until added to appropriate volumes of tap water to prepare sufficient 3% DSS solutions. Prepared solutions were stored at 4° C. and added to water bottles daily. Every 3rd day, water in all bottles was discarded and replaced with fresh DSS preparations or tap water (normal controls). Dipentum® (Olsalazine Sodium) was received from the sponsor in hard gelatin capsule form. Capsules were received and each capsule contained 250 mg. On study day −3, 51 capsules were opened (˜12.75 grams) and the contents of each were consolidated into a labeled vial. Appropriate amounts of the beige-orange compound was then added to 250 ml water bottles so that each bottle would contain ˜0.83 mg/ml Olsalazine suspension in the water.
• Male Swiss-Webster mice weighing approximately 22-29 grams on day (−)3 were obtained from Harlan, Inc (Indianapolis, Ind.). Animals were identified by color-coded dots at the base of the tail delineating group and animal number. After randomization, all cages were labeled with protocol number, group and animal numbers with appropriate color-coding.
Animals (5/group/normal control, 20/group for diseased treated), housed 5/cage, were given 3.0% DSS in their water from test days 0-14. Olsalazine treatment was initiated on day −3 and continued daily through day 14, or on days −3, −2, −1, 0, 2, 4, 6, 8, 10, 12, and 14 for the q2d group. Animals were terminated on day 14. • Experimental groups were as follows:
Animals were weighed on study days −3 to 14. On day 14 mice were weighed, euthanized, and the entire colon was removed and the length determined. The colons were scored for gross changes using the following criteria:
0=normal, no blood observed
2=semi-solid to fluid stool
3=semi-solid with definite evidence of blood, bloody fluid or no content
Only animals that survived to study termination were included in the analysis of terminal colon lengths and scores.
For each surviving animal, the entire colon (proximal and distal) was trimmed into 8 equally spaced pieces for processing and embedding. Sections were stained with hemotoxylin and eosin (H&E). For each colon section, submucosal edema was quantified by measuring the distance (mm) from the muscularis mucosa to the internal border of the outer muscle layer in representative areas of edema. The extent of inflammation (foamy macrophages, lymphocytes and polymorphonuclear cell infiltrate) was assigned severity scores according to the following ranking:
The parameters reflecting epithelial cell loss/damage were scored individually using a percent area involved scoring method:
Parameters that were scored using the above percent involvement scale include: • 1) Colon glandular loss—includes crypt epithelial as well as remaining gland epithelial loss. • 2) Colon erosion—reflects loss of surface epithelium and generally is associated with mucosal hemorrhage (seen clinically and at necropsy).
Mucosal epithelial hyperplasia (basophilia, mitotic figures, multi-layered on basement membranes, absence of goblet cells) was scored 0-5 based on the following criteria […]

The mark [1] stands for this setting: Olsalazine ad libitum, q2d, compared to disease controls.
The mark [2] stands for this setting: Olsalazine ad libitum, q2d, histopathology day 14, non significant.
[3] abbreviates: Olsalazine ad libitum, qd, histopathology day 14.
Setting [4] is: Olsalazine ad libitum, qd, histopathology day 14, non significant.
[5] abbreviates: Olsalazine ad libitum, qd, histopathology day 14, significant.

For `O=C([O-])c1cc(N=Nc2ccc(O)c(C(=O)[O-])c2)ccc1O.[Na+].[Na+]` [Olsalazine, disodium 3,3′-azobis(6-hydroxybenzoate)], under “Olsalazine ad libitum in water (~0.83 mg/ml), every day (qd), day -3 to 14”, the “survival to necropsy day” value stood at 75%. Further, the “survival to necropsy day” value (Olsalazine ad libitum, every other day (q2d): days -3,-2,-1,0,2,...14) came out at 50%. Further, under “Olsalazine ad libitum, q2d”, the “mean body weight loss at study end” value came out at 3.10 g; the “colon content score (mean, scale 0-3)” value was determined as 2.70; the mean colon length was 7.1 cm; the “inhibition of decreased colon length” value came to 18%. For the same molecule, under setting [1], the “inhibition of mean hyperplasia score” value stood at 11% and the “inhibition of mucosal thickness” value was determined as 17%. In addition, under “Olsalazine ad libitum, q2d, histopathology day 14”, the “inhibition of colon gland loss” value amounted to 32%. Besides, under setting [2], the “inhibition of colon edema” value is 21%, the “inhibition of colon erosion” value is 27%, the “inhibition of colon inflammation” value is given as 27% and the “inhibition of sum colon histopathologic score” value was 29%. Further, for the setting “Olsalazine ad libitum, qd”, the “mean body weight loss at study end” value amounted to 4.78 g; the “colon content score (mean, scale 0-3)” value was 2.33; the mean colon length was 7.33 cm; the “inhibition of decreased colon length” value was found to be 23%. Also, for the setting “Olsalazine ad libitum, qd, compared to disease control”, the “inhibition of mean hyperplasia score” value amounted to 16%. Further, under setting [3], the “inhibition of colon erosion” value is reported as 32% and the “inhibition of increase of mucosal thickness” value came out at 32%. Under setting [4], the “inhibition of colon edema” value is recorded as 22% and the “inhibition of sum colon histopathologic score” value came to 35%. In addition, under setting [5], the “inhibition of colon gland loss” value is listed as 32% and the “inhibition of colon inflammation” value worked out at 33%.

For the origin of these results see patent US20100015111A1, “Methods And Kits For The Treatment Inhibition, And Maintenance Of Gastrointestinal Disorders” (priority 2008, published 2010).
